Experimental findings from US9518065B2, “IRAK inhibitors and uses thereof” (NIMBUS IRIS, INC., priority 2013, dated 2016) are described below.

Where two headings read alike, the source gives them in different places.

In one test the target is T1, IRAK4 (Homo sapiens, UniProt Q9NWZ3).
T1 construct: purchased CARNA Bioscience 09-145
T1 sequence (Q9NWZ3 1-460): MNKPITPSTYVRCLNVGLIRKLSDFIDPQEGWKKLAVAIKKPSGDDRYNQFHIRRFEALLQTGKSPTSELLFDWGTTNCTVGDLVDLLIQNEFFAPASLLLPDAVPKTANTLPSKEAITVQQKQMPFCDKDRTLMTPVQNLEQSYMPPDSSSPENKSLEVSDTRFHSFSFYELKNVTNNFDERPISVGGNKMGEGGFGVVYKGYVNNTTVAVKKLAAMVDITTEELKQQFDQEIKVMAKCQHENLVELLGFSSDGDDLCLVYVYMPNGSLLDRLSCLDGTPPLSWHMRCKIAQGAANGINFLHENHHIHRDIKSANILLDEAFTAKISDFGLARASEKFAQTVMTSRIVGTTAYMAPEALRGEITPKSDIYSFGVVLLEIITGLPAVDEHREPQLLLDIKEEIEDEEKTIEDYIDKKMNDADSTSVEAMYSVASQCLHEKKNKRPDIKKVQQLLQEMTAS
Briefly: IRAK-4 activity inhibition assay (Caliper). Type of test: biochemical. To be noted: 3.5 nM IRAK4, 37 μM ATP, 1.5 μM Peptide 8. In a few lines: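 Caliper mobility-shift assay: 3.5 nM IRAK4 preincubated 10 min with compound (10-point series, duplicates), then 1.5 μM peptide 8 and 37 μM ATP added in HEPES pH 7.5 with Mg2+/Mn2+ and DTT, 40 min at 28°C before EDTA stop. Percent inhibition from substrate conversion relative to DMSO and no-enzyme controls.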

Test [1] relates to TNFα and IL8 production in THP-1 cells. The experiment in a line: LPS induced cytokine (TNFα and IL8) production assay in THP-1 cells. The class given is cell-based. As to conditions: 300 ng/mL LPS. Here is the method:
Provided compounds were also assayed in an LPS (Lipopolysacharide) or R848 (TLR-7 agonist) induced cytokine (TNFα and IL8) production assay in THP-1 cells, human white blood cells (hWBC), and whole blood. The exemplary protocol for this assay in THP-1 cells was as follows below.
THP-1 cells from ATCC (TIB-202) were cultured in RPMI Medium 1640 (Invitrogen, Cat No. A10491-01), 10% fetal bovine serum (Invitrogen, Cat No. 10099141, Lot No. 8172882) containing 100 U/mL Penicillin, 100 μg/mL streptomycin (Invitrogen, Cat No. 15140-122), and 50 uM 2-Mercaptoethanol (Invitrogen, Cat No. 21985023). LPS-EK ultra pure (Invivogen, Cat No. tlrl-peklps) was used to induce IL8 and TNFα production, that was detected in the cell culture supernatant by IL8 HTRF kit (Cisbio, Cat No. 62IL8PEB) and TNFα HTRF kit (Cisbio, Cat No. 62TNFPEB), as per manufacturer instructions. Cells were cultured in 96 well assay plates at 100,000 cells per well, and compounds diluted in final 0.3% DMSO were pre-incubated with cells for 1 hour prior to stimulation with 300 ng/mL LPS. Cytokine production in cell supernatant was measured at 5 hours for TNFα and IL8 production, and for 16 hours for IL8 production and assessment of cell viability.
The compound numbers correspond to the compound numbers in Table 1. […] “NA” stands for “not assayed.”

[2] abbreviates: Homo sapiens, 5 hours, read-out: TNFα production IC50.
Setting [3] is: Homo sapiens, 16 hours, read-out: IL8 (16 h) production IC50.

The term IC50 denotes the midpoint of a concentration-inhibition curve. As to `CCc1nc2c(N[C@H]3CC[C@H](N4CCOCC4)CC3)nc(Nc3cnn(C)c3)nc2s1` [Compound I-7, 2-ethyl-N5-(1-methyl-1H-pyrazol-4-yl)-N7-((1r,4r)-4-morpholinocyclohexyl)-thiazolo[5,4-d]pyrimidine-5,7-diamine], the IC50 is at most 1000 nM against IRAK4, at most 250 nM in test [1] (setting [2]) and at most 250 nM in test [1] (setting [3]).

Turning to “2-methyl-N5-(1-methyl-1H-pyrazol-4-yl)-N7-((1r,4r)-4-morpholinocyclohexyl)thiazolo[5,4-d]pyrimidine-5,7-diamine [Compound I-24]”, the IC50 against IRAK4 was at most 1000 nM; in test [1] (5 hours, read-out: TNFα production IC50), at least 500 nM; in test [1] (16 hours, read-out: IL8 (16 h) production IC50) it was 250 to 500 nM.

Turning to `CCc1nc2c(N[C@H]3CC[C@H](N4CCOCC4)CC3)nc(Nc3cnn(C4CCOCC4)c3)nc2s1` [Compound I-9, 2-ethyl-5-N-[1-(oxan-4-yl)-1H-pyrazol-4-yl]-7-N—[trans-4-(morpholin-4-yl)cyclohexyl]-[1,3]thiazolo[5,4-d]pyrimidine-5,7-diamine], the IC50 was at most 1000 nM at IRAK4, at most 250 nM in test [1] (setting [2]) and at most 250 nM in test [1] (setting [3]).
